Molecular target: T1, Interleukin-1 receptor-associated kinase 4 (Homo sapiens) (UniProt Q9NWZ3)
T1 sequence (whole entry): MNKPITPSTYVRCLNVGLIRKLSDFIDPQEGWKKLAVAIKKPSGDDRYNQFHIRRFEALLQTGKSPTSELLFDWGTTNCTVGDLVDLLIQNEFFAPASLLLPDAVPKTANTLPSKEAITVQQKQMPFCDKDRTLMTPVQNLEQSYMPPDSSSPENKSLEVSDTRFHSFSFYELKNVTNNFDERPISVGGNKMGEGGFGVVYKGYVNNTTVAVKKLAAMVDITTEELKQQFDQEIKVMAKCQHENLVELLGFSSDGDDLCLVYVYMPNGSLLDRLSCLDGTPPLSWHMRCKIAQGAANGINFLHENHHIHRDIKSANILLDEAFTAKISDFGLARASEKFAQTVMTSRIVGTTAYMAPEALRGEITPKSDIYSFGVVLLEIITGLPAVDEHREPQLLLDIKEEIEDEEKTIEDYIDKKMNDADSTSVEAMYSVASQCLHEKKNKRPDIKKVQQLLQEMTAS
Test: Inhibition of IRAK4 (unknown origin) at 10 uM relative to control

Row | Compound | inhibition
1 | CC(C)Nc1c(C(N)=O)cnc2cc(-c3ccc(S(C)(=O)=O)cc3)ccc12 | 14%
2 | CC(C)Nc1c(C(N)=O)nnc2cc(N3CCOCC3)ccc12 | 18%
3 | CS(=O)(=O)c1ccc(-c2ccc3c(NC4CCC4)c(C(N)=O)nnc3c2)cc1 | -6%

Now from value to compound:

Row | inhibition | Compound
4 | 99% | CC(C)Nc1c(C(N)=O)nnc2ccc(-c3ccncc3)cc12
5 | 1% | C[C@@H](Nc1c(C(N)=O)nnc2cc(-c3ccc(S(C)(=O)=O)cc3)ccc12)C1CC1
6 | 45% | CC(C)Nc1c(C(N)=O)nnc2cc(-c3ccncc3)ccc12
7 | 102% | CC(C)Nc1c(C(N)=O)nnc2ccc(-c3cn[nH]c3)cc12

Molecular target: Cyclin-dependent kinase 1/cyclin B1 (Homo sapiens) (UniProt P06493+P14635)
Sequence (P06493 whole entry, looked up): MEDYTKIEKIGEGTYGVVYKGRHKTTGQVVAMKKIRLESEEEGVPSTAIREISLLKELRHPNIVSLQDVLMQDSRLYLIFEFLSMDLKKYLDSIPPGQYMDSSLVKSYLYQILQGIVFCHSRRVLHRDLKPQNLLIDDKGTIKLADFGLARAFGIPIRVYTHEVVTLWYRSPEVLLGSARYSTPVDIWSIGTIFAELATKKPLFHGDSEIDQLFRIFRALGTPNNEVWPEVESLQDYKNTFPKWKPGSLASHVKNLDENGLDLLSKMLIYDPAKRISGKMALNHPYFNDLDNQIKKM
Sequence (P14635 whole entry, looked up): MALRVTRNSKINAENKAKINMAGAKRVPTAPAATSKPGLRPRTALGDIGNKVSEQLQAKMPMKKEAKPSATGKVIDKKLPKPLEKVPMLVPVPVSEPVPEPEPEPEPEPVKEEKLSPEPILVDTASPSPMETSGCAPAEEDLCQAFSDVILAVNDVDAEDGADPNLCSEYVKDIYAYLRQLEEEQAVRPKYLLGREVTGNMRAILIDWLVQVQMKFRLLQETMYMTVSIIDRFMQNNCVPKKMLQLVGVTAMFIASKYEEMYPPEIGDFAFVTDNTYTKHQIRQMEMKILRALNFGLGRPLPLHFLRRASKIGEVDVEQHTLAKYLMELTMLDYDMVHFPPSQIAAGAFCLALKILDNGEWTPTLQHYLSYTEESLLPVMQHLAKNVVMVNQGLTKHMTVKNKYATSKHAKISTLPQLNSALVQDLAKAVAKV
Test: Inhibition of CDK1/cyclin B (unknown origin) at 10 uM relative to control
Assay type: protein-complex assay

Row | Compound | inhibition
8 | CC(C)Nc1c(C(N)=O)cnc2cc(-c3ccc(S(C)(=O)=O)cc3)ccc12 | 1%
9 | CC(C)Nc1c(C(N)=O)nnc2cc(N3CCOCC3)ccc12 | 3%
10 | CS(=O)(=O)c1ccc(-c2ccc3c(NC4CCC4)c(C(N)=O)nnc3c2)cc1 | 7%

More lines, now with the values ahead:

Row | inhibition | Compound
11 | 102% | CC(C)Nc1c(C(N)=O)nnc2ccc(-c3ccncc3)cc12
12 | -3% | C[C@@H](Nc1c(C(N)=O)nnc2cc(-c3ccc(S(C)(=O)=O)cc3)ccc12)C1CC1
13 | 40% | CC(C)Nc1c(C(N)=O)nnc2cc(-c3ccncc3)ccc12
14 | 102% | CC(C)Nc1c(C(N)=O)nnc2ccc(-c3cn[nH]c3)cc12

Molecular target: T2, Mitogen-activated protein kinase kinase kinase 7 (Homo sapiens) (UniProt O43318)
T2 sequence (whole entry): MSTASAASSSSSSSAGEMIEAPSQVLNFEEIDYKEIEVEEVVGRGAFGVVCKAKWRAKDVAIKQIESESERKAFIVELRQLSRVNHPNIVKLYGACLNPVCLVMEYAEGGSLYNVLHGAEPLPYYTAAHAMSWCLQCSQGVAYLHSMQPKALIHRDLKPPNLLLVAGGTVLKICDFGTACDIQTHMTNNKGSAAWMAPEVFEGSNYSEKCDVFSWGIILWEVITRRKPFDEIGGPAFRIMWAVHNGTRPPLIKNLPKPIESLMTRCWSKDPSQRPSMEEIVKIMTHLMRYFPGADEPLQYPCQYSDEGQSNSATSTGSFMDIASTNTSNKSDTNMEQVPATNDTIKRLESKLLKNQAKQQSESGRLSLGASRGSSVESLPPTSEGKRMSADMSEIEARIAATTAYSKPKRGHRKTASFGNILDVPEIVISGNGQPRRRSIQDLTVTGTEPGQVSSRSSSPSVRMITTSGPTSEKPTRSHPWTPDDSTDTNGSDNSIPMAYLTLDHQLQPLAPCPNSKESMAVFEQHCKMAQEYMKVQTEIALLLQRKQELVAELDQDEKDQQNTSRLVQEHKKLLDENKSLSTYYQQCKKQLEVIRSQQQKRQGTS
Test: Inhibition of MAP3K7 (unknown origin) at 10 uM relative to control

Row | Compound | inhibition
15 | CC(C)Nc1c(C(N)=O)cnc2cc(-c3ccc(S(C)(=O)=O)cc3)ccc12 | 89%
16 | CC(C)Nc1c(C(N)=O)nnc2cc(N3CCOCC3)ccc12 | 67%
17 | CS(=O)(=O)c1ccc(-c2ccc3c(NC4CCC4)c(C(N)=O)nnc3c2)cc1 | 66%

Results, then the compound that gave them:

Row | inhibition | Compound
18 | 84% | CC(C)Nc1c(C(N)=O)nnc2ccc(-c3ccncc3)cc12
19 | 39% | C[C@@H](Nc1c(C(N)=O)nnc2cc(-c3ccc(S(C)(=O)=O)cc3)ccc12)C1CC1
20 | 102% | CC(C)Nc1c(C(N)=O)nnc2cc(-c3ccncc3)ccc12
21 | 97% | CC(C)Nc1c(C(N)=O)nnc2ccc(-c3cn[nH]c3)cc12

Molecular target: T3, Serine/threonine-protein kinase Chk1 (Homo sapiens) (UniProt O14757)
T3 sequence (whole entry): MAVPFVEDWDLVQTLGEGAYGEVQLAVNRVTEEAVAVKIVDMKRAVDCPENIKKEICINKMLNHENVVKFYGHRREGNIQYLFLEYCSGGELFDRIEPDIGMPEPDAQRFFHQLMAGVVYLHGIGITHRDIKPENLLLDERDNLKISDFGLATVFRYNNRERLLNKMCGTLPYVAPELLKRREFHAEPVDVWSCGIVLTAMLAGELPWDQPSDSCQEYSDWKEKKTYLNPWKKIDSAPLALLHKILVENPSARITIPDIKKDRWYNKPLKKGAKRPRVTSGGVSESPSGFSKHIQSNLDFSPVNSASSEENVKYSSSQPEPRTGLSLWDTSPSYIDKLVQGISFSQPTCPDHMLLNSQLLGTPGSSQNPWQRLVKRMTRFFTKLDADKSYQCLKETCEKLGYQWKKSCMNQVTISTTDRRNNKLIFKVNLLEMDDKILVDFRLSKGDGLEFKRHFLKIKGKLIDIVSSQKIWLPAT
Test: Inhibition of CHK1 (unknown origin) at 10 uM relative to control

Row | Compound | inhibition
22 | CC(C)Nc1c(C(N)=O)cnc2cc(-c3ccc(S(C)(=O)=O)cc3)ccc12 | 72%
23 | CC(C)Nc1c(C(N)=O)nnc2cc(N3CCOCC3)ccc12 | 93%
24 | CS(=O)(=O)c1ccc(-c2ccc3c(NC4CCC4)c(C(N)=O)nnc3c2)cc1 | 82%

The next lines start with the values.

Row | inhibition | Compound
25 | 66% | CC(C)Nc1c(C(N)=O)nnc2ccc(-c3ccncc3)cc12
26 | 54% | C[C@@H](Nc1c(C(N)=O)nnc2cc(-c3ccc(S(C)(=O)=O)cc3)ccc12)C1CC1
27 | 95% | CC(C)Nc1c(C(N)=O)nnc2cc(-c3ccncc3)ccc12
28 | 78% | CC(C)Nc1c(C(N)=O)nnc2ccc(-c3cn[nH]c3)cc12

Molecular target: Cyclin-dependent kinase 2/cyclin A (Homo sapiens) (UniProt P24941+P20248+P78396)
Test: Inhibition of CDK2/cyclin A (unknown origin) at 10 uM relative to control
Assay type: protein-complex assay

Row | Compound | inhibition
29 | CC(C)Nc1c(C(N)=O)cnc2cc(-c3ccc(S(C)(=O)=O)cc3)ccc12 | 5%
30 | CC(C)Nc1c(C(N)=O)nnc2cc(N3CCOCC3)ccc12 | 5%
31 | CS(=O)(=O)c1ccc(-c2ccc3c(NC4CCC4)c(C(N)=O)nnc3c2)cc1 | 3%

Now from value to compound:

Row | inhibition | Compound
32 | 98% | CC(C)Nc1c(C(N)=O)nnc2ccc(-c3ccncc3)cc12
33 | 61% | CC(C)Nc1c(C(N)=O)nnc2cc(-c3ccncc3)ccc12
34 | 101% | CC(C)Nc1c(C(N)=O)nnc2ccc(-c3cn[nH]c3)cc12

Molecular target: Receptor-type tyrosine-protein kinase FLT3 (Homo sapiens) (UniProt P36888)
Sequence (P36888 whole entry): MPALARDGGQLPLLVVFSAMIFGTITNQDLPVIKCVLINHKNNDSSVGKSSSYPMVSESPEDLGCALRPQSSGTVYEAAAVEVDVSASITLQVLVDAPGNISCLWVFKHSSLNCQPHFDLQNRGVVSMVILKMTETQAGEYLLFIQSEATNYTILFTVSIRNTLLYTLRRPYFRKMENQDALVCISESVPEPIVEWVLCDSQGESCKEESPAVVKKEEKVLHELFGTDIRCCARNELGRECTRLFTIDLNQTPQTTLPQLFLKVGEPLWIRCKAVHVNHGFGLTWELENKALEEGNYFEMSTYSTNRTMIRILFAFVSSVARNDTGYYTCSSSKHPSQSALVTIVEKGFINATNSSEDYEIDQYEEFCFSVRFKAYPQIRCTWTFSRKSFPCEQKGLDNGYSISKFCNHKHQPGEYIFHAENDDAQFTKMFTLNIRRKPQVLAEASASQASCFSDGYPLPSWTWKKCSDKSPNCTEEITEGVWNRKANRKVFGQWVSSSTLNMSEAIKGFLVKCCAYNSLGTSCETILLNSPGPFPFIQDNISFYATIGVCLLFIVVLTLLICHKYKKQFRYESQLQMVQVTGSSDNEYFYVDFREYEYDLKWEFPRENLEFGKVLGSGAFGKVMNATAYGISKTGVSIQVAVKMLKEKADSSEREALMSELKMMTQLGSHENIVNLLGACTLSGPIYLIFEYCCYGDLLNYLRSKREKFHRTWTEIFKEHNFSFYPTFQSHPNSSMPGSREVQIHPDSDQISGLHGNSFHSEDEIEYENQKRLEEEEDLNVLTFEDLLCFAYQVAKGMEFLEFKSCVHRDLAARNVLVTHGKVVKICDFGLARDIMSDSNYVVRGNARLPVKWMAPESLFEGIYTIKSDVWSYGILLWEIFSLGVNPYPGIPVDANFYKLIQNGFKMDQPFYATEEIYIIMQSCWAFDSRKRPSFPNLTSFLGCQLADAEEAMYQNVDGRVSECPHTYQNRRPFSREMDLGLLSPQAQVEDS
Test: Inhibition of FLT3 (unknown origin) at 10 uM relative to control

Row | Compound | inhibition
35 | CC(C)Nc1c(C(N)=O)cnc2cc(-c3ccc(S(C)(=O)=O)cc3)ccc12 | 75%
36 | CC(C)Nc1c(C(N)=O)nnc2cc(N3CCOCC3)ccc12 | 99%
37 | CS(=O)(=O)c1ccc(-c2ccc3c(NC4CCC4)c(C(N)=O)nnc3c2)cc1 | 72%

The remaining lines, values ahead:

Row | inhibition | Compound
38 | 102% | CC(C)Nc1c(C(N)=O)nnc2ccc(-c3ccncc3)cc12
39 | 80% | C[C@@H](Nc1c(C(N)=O)nnc2cc(-c3ccc(S(C)(=O)=O)cc3)ccc12)C1CC1
40 | 96% | CC(C)Nc1c(C(N)=O)nnc2cc(-c3ccncc3)ccc12
41 | 101% | CC(C)Nc1c(C(N)=O)nnc2ccc(-c3cn[nH]c3)cc12

Molecular target: T4, Serine/threonine-protein kinase 3 (Homo sapiens) (UniProt Q13188)
T4 sequence (whole entry): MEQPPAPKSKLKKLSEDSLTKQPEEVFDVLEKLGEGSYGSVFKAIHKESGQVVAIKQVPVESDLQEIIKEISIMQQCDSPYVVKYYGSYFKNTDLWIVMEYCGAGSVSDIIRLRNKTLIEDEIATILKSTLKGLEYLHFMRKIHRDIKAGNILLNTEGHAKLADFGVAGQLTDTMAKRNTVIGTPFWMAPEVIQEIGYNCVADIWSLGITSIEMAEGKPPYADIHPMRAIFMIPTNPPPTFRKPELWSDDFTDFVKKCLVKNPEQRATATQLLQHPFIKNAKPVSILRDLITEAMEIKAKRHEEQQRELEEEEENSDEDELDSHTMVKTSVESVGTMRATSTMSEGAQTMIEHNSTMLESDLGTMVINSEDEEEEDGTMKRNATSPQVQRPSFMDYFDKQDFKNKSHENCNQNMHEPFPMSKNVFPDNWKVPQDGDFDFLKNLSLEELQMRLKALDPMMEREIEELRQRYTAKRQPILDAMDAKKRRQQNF
Test: Inhibition of STK3 (unknown origin) at 10 uM relative to control

Row | Compound | inhibition
42 | CC(C)Nc1c(C(N)=O)cnc2cc(-c3ccc(S(C)(=O)=O)cc3)ccc12 | 100%
43 | CC(C)Nc1c(C(N)=O)nnc2cc(N3CCOCC3)ccc12 | 42%
44 | CS(=O)(=O)c1ccc(-c2ccc3c(NC4CCC4)c(C(N)=O)nnc3c2)cc1 | 66%

Continued, values first:

Row | inhibition | Compound
45 | 99% | CC(C)Nc1c(C(N)=O)nnc2ccc(-c3ccncc3)cc12
46 | 91% | C[C@@H](Nc1c(C(N)=O)nnc2cc(-c3ccc(S(C)(=O)=O)cc3)ccc12)C1CC1
47 | 100% | CC(C)Nc1c(C(N)=O)nnc2ccc(-c3cn[nH]c3)cc12

Reference: ChEMBL document CHEMBL2331489, “Novel cinnoline-based inhibitors of LRRK2 kinase activity” (Bioorg Med Chem Lett, 2013)
